From patent publication US20250171484A1, “METHOD FOR PRODUCING DISACCHARIDE USING BETA-GLUCOSIDASE AND COFACTOR THEREOF AND COMPOSITION FOR INDUCING ENZYME PRODUCTION OF STRAIN OF GENUS TRICHODERMA COMPRISING PRODUCED DISACCHARIDE” (CJ CheilJedang Corporation, priority 2021, published 2025)

Tested on: β-glucosidase (SEQ ID NO: 1)
Experiment: Disaccharide production from glucose by beta-glucosidase with added divalent metal ion
Assay type: biochemical, Trichoderma reesei
Settings: for Concentration (g/L) Cellobiose / Concentration (g/L) Gentiobiose / Concentration (g/L) Isomaltose / Concentration (g/L) Maltose / Concentration (g/L) Sophorose / Concentration (g/L) Trehalose / Concentration (g/L) Total: 1 mM ion, 60° C.; for Concentration (g/L) Total: total equals gentiobiose + sophorose; for Increase/decrease rate (%) Gentiobiose / Increase/decrease rate (%) Sophorose / Increase/decrease rate (%) Total: versus no ion added
Procedure: Glucose powder with a purity of 95% or more (hydrous crystalline glucose, Daejung Chemicals & Metals) was dissolved using steam to prepare 40 kg of a glucose solution with a concentration of 71% w/w. 0.3 kg of β-glucosidase (SEQ ID NO: 1) was added at a concentration of 1,650 U/ml to the prepared glucose solution, allowed to stand at 60° C. for 7 days to 21 days to prepare a composition comprising disaccharides (Treated Glucose Syrup, TGS). 0.3 kg of β-glucosidase (same as in Example 1) was added to the glucose solution of Example 1 at a concentration of 1,650 U/ml, and 1 mM of divalent ions [manganese ion (Mn^2+), magnesium ion (Mg^2+), zinc ion (Zn^2+), and copper ion (Cu^2+) each] was further added thereto, and allowed to stand at 60° C. for 7 days to 21 days to prepare a composition containing disaccharides. In the compositions prepared in Examples 1 and 2, the production concentration (g/L) and increase/decrease rate (%) of the disaccharides, i.e. trehalose, isomaltose, maltose, cellobiose, gentiobiose, and sophorose were measured, and the results are shown in Table 1 and Table 2 below. The production concentration was analyzed using a Bio-LC system (Dionex ICS-3000, Sunnyvale, CA, United States) equipped with an electrochemical detector and a CarboPac PAI column.

SMILES | Concentration (g/L) Cellobiose (standing period 7 days) [g/L] | Concentration (g/L) Gentiobiose (standing period 7 days) [g/L] | Concentration (g/L) Isomaltose (standing period 7 days) [g/L] | Concentration (g/L) Maltose (standing period 7 days) [g/L] | Concentration (g/L) Sophorose (standing period 7 days) [g/L] | Concentration (g/L) Trehalose (standing period 7 days) [g/L] | Concentration (g/L) Total (standing period 7 days) [g/L] | Increase/decrease rate (%) Gentiobiose (standing period 7 days) [%] | Increase/decrease rate (%) Sophorose (standing period 7 days) [%] | Increase/decrease rate (%) Total (standing period 7 days) [%] | Concentration (g/L) Cellobiose (standing period 14 days) [g/L] | Concentration (g/L) Gentiobiose (standing period 14 days) [g/L] | Concentration (g/L) Isomaltose (standing period 14 days) [g/L] | Concentration (g/L) Maltose (standing period 14 days) [g/L] | Concentration (g/L) Sophorose (standing period 14 days) [g/L] | Concentration (g/L) Trehalose (standing period 14 days) [g/L] | Concentration (g/L) Total (standing period 14 days) [g/L] | Increase/decrease rate (%) Gentiobiose (standing period 14 days) [%] | Increase/decrease rate (%) Sophorose (standing period 14 days) [%] | Increase/decrease rate (%) Total (standing period 14 days) [%] | other results
[Mn+2] [Mn^2+, manganese ion (Mn^2+)] | 14.5 | 69.5 | 8.6 | 16.8 | 11.6 | 21.7 | 81.1 | 18.9 | 67.8 | 24.1 | 15.4 | 78 | 12.4 | 16.1 | 16.5 | 14.6 | 94.5 | 10.5 | 29.2 | 13.4 | Concentration (g/L) Cellobiose (standing period 21 days): 15.5 g/L; Concentration (g/L) Gentiobiose (standing period 21 days): 86.5 g/L; Concentration (g/L) Isomaltose (standing period 21 days): 15.7 g/L; Concentration (g/L) Maltose (standing period 21 days): 17.1 g/L; Concentration (g/L) Sophorose (standing period 21 days): 23.6 g/L; Concentration (g/L) Trehalose (standing period 21 days): 14.1 g/L; Concentration (g/L) Total (standing period 21 days): 110.2 g/L; Increase/decrease rate (%) Gentiobiose (standing period 21 days): 4.6%; Increase/decrease rate (%) Sophorose (standing period 21 days): 48.7%; Increase/decrease rate (%) Total (standing period 21 days): 11.7%
[Mg+2] [Mg^2+, magnesium ion (Mg^2+)] | 13.1 | 64.3 | 6.7 | 13.7 | 10.8 | 21.1 | 75.1 | 10 | 56.8 | 15 | 15.6 | 69.4 | 10.6 | 14.6 | 17.4 | 15.3 | 86.8 | −1.6 | 36.5 | 4.2 | Concentration (g/L) Cellobiose (standing period 21 days): 15.4 g/L; Concentration (g/L) Gentiobiose (standing period 21 days): 74.6 g/L; Concentration (g/L) Isomaltose (standing period 21 days): 13.2 g/L; Concentration (g/L) Maltose (standing period 21 days): 15.4 g/L; Concentration (g/L) Sophorose (standing period 21 days): 23.1 g/L; Concentration (g/L) Trehalose (standing period 21 days): 14.8 g/L; Concentration (g/L) Total (standing period 21 days): 97.7 g/L; Increase/decrease rate (%) Gentiobiose (standing period 21 days): −9.8%; Increase/decrease rate (%) Sophorose (standing period 21 days): 45.3%; Increase/decrease rate (%) Total (standing period 21 days): −0.9%
[Zn+2] [Zn^2+, zinc ion (Zn^2+)] | 14.8 | 69.9 | 7.3 | 15.8 | 12.6 | 22.2 | 82.5 | 19.7 | 82.8 | 26.3 | 14.9 | 81 | 9.8 | 14.3 | 16.4 | 14.3 | 97.3 | 14.7 | 28.4 | 16.8 | Concentration (g/L) Cellobiose (standing period 21 days): 15 g/L; Concentration (g/L) Gentiobiose (standing period 21 days): 92 g/L; Concentration (g/L) Isomaltose (standing period 21 days): 12.5 g/L; Concentration (g/L) Maltose (standing period 21 days): 15.2 g/L; Concentration (g/L) Sophorose (standing period 21 days): 23.4 g/L; Concentration (g/L) Trehalose (standing period 21 days): 14.5 g/L; Concentration (g/L) Total (standing period 21 days): 115.4 g/L; Increase/decrease rate (%) Gentiobiose (standing period 21 days): 11.3%; Increase/decrease rate (%) Sophorose (standing period 21 days): 47.1%; Increase/decrease rate (%) Total (standing period 21 days): 17%
[Cu+2] [Cu^2+, copper ion (Cu^2+)] | 15.1 | 71.7 | 8 | 18.7 | 13.3 | 19.4 | 85 | 22.8 | 92.2 | 30.1 | 15.2 | 82.1 | 10.3 | 15.9 | 17 | 12.6 | 99.1 | 16.3 | 33.5 | 18.9 | Concentration (g/L) Cellobiose (standing period 21 days): 15.5 g/L; Concentration (g/L) Gentiobiose (standing period 21 days): 92.4 g/L; Concentration (g/L) Isomaltose (standing period 21 days): 12.4 g/L; Concentration (g/L) Maltose (standing period 21 days): 16.8 g/L; Concentration (g/L) Sophorose (standing period 21 days): 24.3 g/L; Concentration (g/L) Trehalose (standing period 21 days): 13 g/L; Concentration (g/L) Total (standing period 21 days): 116.7 g/L; Increase/decrease rate (%) Gentiobiose (standing period 21 days): 11.7%; Increase/decrease rate (%) Sophorose (standing period 21 days): 53.0%; Increase/decrease rate (%) Total (standing period 21 days): 18.4%
